Non-standard residues stand in square brackets, D forms with d. Residues, ends and D or L forms follow the SMILES beside them. *: point of attachment. FITC = O=C1OC2(c3ccc(O)cc3Oc3cc(O)ccc32)c2ccc(NC(=S)*)cc21

The test system of one test is 293T cells. Kind of test: Localization in untransfected 293T cells, immunofluorescence microscopy. Conditions: FITC-GO-203 alone, 5 μM, 3 h. Format: cell-based. As for the experimental part:
(§1) Human ZR-75-1 breast cancer (ATTC) and H1975 lung cancer (ATTC) cell lines were grown in RPMI 1640 supplemented with 10% heat-inactivated fetal bovine serum (HI-FBS), 100 units/ml penicillin, and 100 μg/ml streptomycin. 293T cells were grown in DMEM with 10% HI-FBS, antibiotics, and 2 mmol/L L-glutamine. Cells were treated with FITC conjugated-GO-202 (FITC-GO-202), FITC-GO-203 or unconjugated GO-203 synthesized by the MIT Biopolymer Laboratory (Cambridge, MA) and AnaSpec, Inc (San Jose, CA). The p3XFLAG-CMV-10 (Sigma, St. Louis, MO), pEGFP-C1 and pDsRed-Monomer-N1 (Clontech, Mountain View, CA) vectors were used for transfection of rat and dog MUC1-CD and full length human MUC1 in 293T cells in the presence of Lipofectamine 2000 (Life Technologies, Grand Island, NY).
(§2) 293T cells were transfected with MUC1-pDsRed-Monomer-N1 in the presence of Lipofectamine 2000 for 48 h. The cells were then incubated with FITC-GO-203 for 3 h and examined using a Nikon-deconvolution wide-field epifluorescence system with a 100x oil immersion objective. Images were captured using NIS-element software (Nikon) and analyzed by ImageJ software.

For test [1], the system named is endogenous MUC1-C. Kind of test: Binding to endogenous MUC1-C in H1975 cells, coimmunoprecipitation. Format: cell-based, human. As to conditions: 5 μM FITC-GO-203 overnight, non-reducing. As for the experimental part:
as §1
(§3) Cell lysates were prepared as described. Soluble proteins were immunoprecipitated with anti-FLAG (Sigma, St. Louis, MO), anti-MUC1-C (Thermo Fisher Scientific, Waltham, MA) or a control IgG. The precipitates and lysates not subjected to immunoprecipitation were immunoblotted with anti-MUC1-C, anti-GFP (Abcam, Cambridge, MA), anti-FLAG and anti-FITC (Life Technologies, Grand Island, NY). Reactivity was detected with horseradish peroxidase-conjugated secondary antibodies and chemiluminescence.

Another test deals with DsRedMN1-MUC1. Kind of test: Localization in 293T cells expressing DsRedMN1-MUC1, immunofluorescence microscopy. Format: cell-based, human. As to conditions: 5 μM FITC-GO-203, 3 h. As for the experimental part: as §1, §2
In test [2] the test system is endogenous MUC1-C. In words: Binding to endogenous MUC1-C in ZR-75-1 cells, coimmunoprecipitation. Format: cell-based, human. Conditions: 5 μM FITC-GO-203 overnight, non-reducing. As to the method: as §1, §3
The next test deals with GST-MUC1-CD(AQA). In words: Binding to GST-MUC1-CD(AQA) mutant. Conditions: CQC motif mutated to AQA; only background fluorescence; data not shown; FITC-labeled peptide, 1 h at 37°C. As to the method:
Binding affinities of FITC-GO-202 and FITC-GO-203 were determined by the saturation binding method. In short, 96-well glutathione- or nickel-coated plates (Thermo Fisher, Waltham, MA) were incubated with 150 μl of PBS buffer containing 21.45 μg/ml of GST-MUC1-CD, GST-MUC1-CD(AQA) or His-MUC1-CD overnight at 4°C followed by washing with 50 mM Tris and 150 mM NaCl containing 0.1% Tween-20 (TBST), and blocking with 0.5% BSA in TBS. The plates were then washed 3 times with TBST. FITC-GO-202 or FITC-GO-203 was added to the wells at 0.19 μM to 25 μM. Nonspecific binding was determined in the presence of GST alone. Plates were incubated for 1 h at 37°C on a shaker followed by washing 3 times with binding buffer. Fluorescence intensity was determined on an Infinite M1000 PRO Tecan Microplate Reader (Tecan, NC) with excitation at 490 nm and emission at 525 nm. GraphPad Prism 4.0 Software (San Diego, CA) was used to calculate the equilibrium dissociation constant (Kd) by a non-linear regression method.
Vectors expressing GST-MUC1-CD, GST-MUC1-CD(AQA) and His-MUC1-CD, GFP-MUC1-CD and FLAG-MUC1-CD have been described. His-tagged MUC1-CD (rat and dog) were cloned in pET28a vector (Clontech, Mountain View, CA) and expressed in E. coli BL21(DE3).

`N=C(N)NCCC[C@@H](NC(=O)[C@@H](CCCNC(=N)N)NC(=O)[C@@H](CS)NC(=O)[C@@H](CCC(N)=O)NC(=O)[C@@H](CS)NC(=O)[C@@H](CCCNC(=N)N)NC(=O)[C@@H](CCCNC(=N)N)NC(=O)[C@@H](CCCNC(=N)N)NC(=O)[C@@H](CCCNC(=N)N)NC(=O)[C@@H](CCCNC(=N)N)NC(=O)[C@@H](CCCNC(=N)N)NC(=O)[C@@H](CCCNC(=N)N)NC(=O)[C@@H](CCCNC(=N)N)NC(=O)[C@@H](CCCNC(=N)N)NC(=S)Nc1ccc2c(c1)C(=O)OC21c2ccc(O)cc2Oc2cc(O)ccc21)C(=O)N[C@H](CCCCN)C(=O)N[C@H](CC(N)=O)C(=O)O` [FITC-GO-203] ({FITC}-[dR][dR][dR][dR][dR][dR][dR][dR][dR][dC][dQ][dC][dR][dR][dK][dN]-OH; N-terminus and C-terminus assumed): the “localization of FITC signals” value in the test with 293T cells is “localized along the membrane and in the cytosol”. The “interaction with MUC1-C monomeric and oligomeric forms” value was “interacts with the different MUC1-C monomeric and oligomeric forms” in the test with endogenous MUC1-C [1] (H1975 cells, entire immunoblots); “interacts with the different MUC1-C monomeric and oligomeric forms” in the test on endogenous MUC1-C [2] (ZR-75-1 cells, entire immunoblots). In the test on endogenous MUC1-C [1] (H1975 lung cancer cells, anti-MUC1-C precipitates, anti-FITC immunoblot), the “association with endogenous MUC1-C” value was “associates with endogenous MUC1-C”. Besides, the “co-localization of DsRed (MUC1) and FITC signals” value in the test with DsRedMN1-MUC1 (293T cells expressing DsRedMN1-MUC1) was “co-localization of the DSRed and FITC signals (Red+Green→Yellow) was observed along the membrane”. In addition, the “FITC staining in cells expressing MUC1 compared to the MUC1-null setting” value in the test with DsRedMN1-MUC1 (293T cells) was “brighter”. In the test on endogenous MUC1-C [2] (ZR-75-1 breast cancer cells, anti-MUC1-C precipitates, anti-FITC immunoblot), the “complex formation with endogenous MUC1-C” value is listed as “forms complexes with MUC1-C”. Moreover, the “interaction with GST-MUC1-CD(AQA)” value in the test on GST-MUC1-CD(AQA) was “no interaction was evident”.

The values above are taken from paper PMC4534190, “Characterization of the MUC1-C Cytoplasmic Domain as a Cancer Target” (PLoS ONE, 2015).
